Results: patent US12534762B2, “Treating atopic dermatitis by targeting the WNT pathway” (Children's Medical Center Corporation, priority 2018, dated 2026)

Columns and labels:
Xenopus embryos = experiment: MO specificity, Western blotting of protein synthesis from co-injected mRNA; format: in vivo, Xenopus laevis; conditions: stage 10
Experimental: (§1) mRNA and Morpholino injection. For animal cap assays, indicated mRNAs (Tmem79, 100 and 200 pg; Xwnt8, 10 pg; β-catenin 50 pg; Xnr1, 250 pg; BMP4, 100 pg) were injected into the animal pole at 4-cell stage, and animal caps were dissected at stage 9 (in the case of Xwnt8, Xnr1, BMP4) or at stage 8.5 and treated with recombinant proteins (bFGF, 100 ng/ml; hShh, 1.5 ng/mL) until stage 10 before RT-PCR. For Neural induction assay the MO (20 ng) for Tmem79, Usp8 or β-catenin was injected into the animal pole at 4-cell stage, and animal caps were dissected at stage 9 and treated with recombinant protein Noggin (500 ng/mL) until stage 18 before RT-PCR. To examine Tmem79 and Usp8 MOs specificity, […] of mRNA of Xenopus Tmem79, mouse Tmem79, Xenopus Usp8 or xmutUsp8 (Xenopus Usp8 mutated for mismatches with the MO) were injected with a control MO, Tmem79 MO or Usp8 MO (20 ng) into the animal pole at the 2-cell stage and cultured til stage 10 for Western blotting. To knockdown the endogenous xTmem79 or xUsp8, 20 ng of control MO, Tmem79 MO or Usp8 MO were injected into two dorso-animal blastomeres at the 8-cell stage and the phenotype was scored at stage 35. To rescue the Tmem79 MO phenotype, […] of mTmem 79, 20 ng of Usp8 MO or 10 ng of β-catenin MO was injected together with Tmem79 MO (20 ng). RT-PCR primers and Morpholinos. […]

[1] = tested on: animal pole explants of Xenopus embryos; experiment: Neural induction assay by Noggin in animal pole explants (RT-PCR); design: species or system Xenopus laevis; conditions: co-injected with Tmem79MO
Experimental: as §1

Usp8 MO: morpholino against Xenopus Usp8, SEQ ID NO: 26 (antisense GCTGCAAATTCTCCTCTCTTATCAA; all phosphorodiamidate morpholino (PMO); listed as Xenopus laevis)
protein synthesis from the Xenopus Usp8 (xUsp8) mRNA (Xenopus embryos): inhibited
neural induction by Noggin abolished by Tmem79MO: effect of co-injection [1]: rescued
